Assay results reported in patent publication US12528812B2 (Genentech, Inc., priority 2020, dated 2026).
Where two headings read alike, the source gives them in different places.

Columns and labels:
[1] = target: T1, recombinant human JAK1 kinase domain protein (Residues 854-1154) (Homo sapiens, UniProt P23458); experiment: JAK1 biochemical assay (LabChip mobility shift, Ki); conditions: read-out: Biochem JAK1 Ki
T1 construct: human JAK1 kinase domain protein (Residues 854-1154); purchased Proteros Biostructures GmbH (Martinsried, Germany); host or cells: insect cells

[2] = test system: IL-13-stimulated STAT6 phosphorylation in human lung bronchial epithelial BEAS-2B cell line; experiment: P-STAT6 BEAS-2B + IL-13 cell assay; type: cell-based; conditions: BEAS2B cells, IL13 stimulation, read-out: Cellular JAK1 PSTAT6 BEAS2B + IL13
In short: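 BEAS-2B cells grown 48 h at 37 °C, pre-treated 1 h with compound (10-point 1:2 dilution curve), then stimulated 15 min with human recombinant IL-13 (250 ng/mL stock). Lysate P-STAT6 (Tyr641) read by MSD sandwich ELISA with total-STAT6 capture; IC50 from four-parameter logistic fit of control-normalised data.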

[3] = target: Recombinant human JAK2 kinase domain protein (Residues 812-1132) (Homo sapiens, UniProt O60674); experiment: JAK2 biochemical assay (LabChip mobility shift, Ki); conditions: Biochem JAK2 Ki
Sequence of Recombinant human JAK2 kinase domain protein (Residues 812-1132) (O60674 812-1132): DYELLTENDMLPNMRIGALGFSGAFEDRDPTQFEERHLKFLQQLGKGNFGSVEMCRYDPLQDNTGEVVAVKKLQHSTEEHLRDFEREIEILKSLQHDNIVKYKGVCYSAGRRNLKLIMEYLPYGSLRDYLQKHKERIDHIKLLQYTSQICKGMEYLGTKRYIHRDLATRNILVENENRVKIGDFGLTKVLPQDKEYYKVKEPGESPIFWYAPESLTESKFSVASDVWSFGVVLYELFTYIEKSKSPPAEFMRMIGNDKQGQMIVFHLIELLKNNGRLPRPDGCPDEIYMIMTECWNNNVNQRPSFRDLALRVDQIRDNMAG

T1 sequence (P23458 854-1154): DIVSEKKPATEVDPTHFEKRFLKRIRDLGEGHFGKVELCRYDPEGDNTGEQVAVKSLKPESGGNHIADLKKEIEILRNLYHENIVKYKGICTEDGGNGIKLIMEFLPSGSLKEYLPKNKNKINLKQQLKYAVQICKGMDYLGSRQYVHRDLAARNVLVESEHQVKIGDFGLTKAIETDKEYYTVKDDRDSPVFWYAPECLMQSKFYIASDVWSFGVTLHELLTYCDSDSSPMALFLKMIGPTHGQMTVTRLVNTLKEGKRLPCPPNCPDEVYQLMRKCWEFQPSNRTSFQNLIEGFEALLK

Row | Ki [1] [nM] | Ki [3] [nM] | Structure (SMILES) | IC50 ([2]; Homo sapiens, BEAS-2B) [nM] | IC50 [2] [nM]
1 | 1.2 | 0.89 | CN(C)C1CCCN(C(=O)c2cccc(Oc3ccc(OC(F)F)c(-c4nn(C)cc4NC(=O)c4cnn5cccnc45)c3)c2)C1 (racemic) [Example 213, N-[3-[2-(difluoromethoxy)-5-[3-[rac-(3R)-3-(dimethylamino)piperidine-1-carbonyl]phenoxy]phenyl]-1-methyl-pyrazol-4-yl]pyrazolo[1,5-a]pyrimidine-3-carboxamide] | 49 | –
2 | 0.98 | 0.58 | CN(C)C1CCN(C(=O)c2cccc(Oc3ccc(OC(F)F)c(-c4nn(C)cc4NC(=O)c4cnn5cccnc45)c3)c2)C1 (racemic) [Example 211, N-[3-[2-(difluoromethoxy)-5-[3-[rac-(3S)-3-(dimethylamino)pyrrolidine-1-carbonyl]phenoxy]phenyl]-1-methyl-pyrazol-4-yl]pyrazolo[1,5-a]pyrimidine-3-carboxamide] | 54 | –
3 | 0.32 | 0.4 | Cn1cc(NC(=O)c2cnn3cccnc23)c(-c2cc(Oc3cc(CNCCO)ccc3F)ccc2OC(F)F)n1 [Example 91, N-[3-[2-(difluoromethoxy)-5-[2-fluoro-5-[(2-hydroxyethylamino)methyl]phenoxy]phenyl]-1-methyl-pyrazol-4-yl]pyrazolo[1,5-a]pyrimidine-3-carboxamide] | 17 | –
4 | 0.26 | 0.41 | Cn1cc(NC(=O)c2cnn3cccnc23)c(-c2cc(Oc3cccc(C4CNC4)c3)ccc2OC(F)F)n1 [Example 87, N-[3-[5-[3-(azetidin-3-yl)phenoxy]-2-(difluoromethoxy)phenyl]-1-methyl-pyrazol-4-yl]pyrazolo[1,5-a]pyrimidine-3-carboxamide] | 36 | –

Row | Structure (SMILES) | Ki [1] [nM] | Ki [3] [nM] | IC50 ([2]; Homo sapiens, BEAS-2B) [nM] | IC50 [2] [nM]
5 | Cn1cc(NC(=O)c2cnn3cccnc23)c(-c2cc(Oc3cnn(CC4(O)CN5CCC4CC5)c3)ccc2OC(F)F)n1 (stereo not drawn) [Example 200, N-[3-[2-(difluoromethoxy)-5-[1-[(3-hydroxyquinuclidin-3-yl)methyl]pyrazol-4-yl]oxy-phenyl]-1-methyl-pyrazol-4-yl]pyrazolo[1,5-a]pyrimidine-3-carboxamide] | 3.6 | 1.6 | – | 780
